From publication PMC3969223, “Characterization of WZ4003 and HTH-01-015 as selective inhibitors of the LKB1-tumour-suppressor-activated NUAK kinases” (Biochemical Journal, 2013)

What was measured:
[1] = target: GCK (Homo sapiens, UniProt Q12851); assay: Kinase profiling; format: biochemical; settings: 0.1 or 1 μM inhibitor; mean of triplicate
[2] = target: PKD1 (Homo sapiens, UniProt Q15139); assay: Kinase profiling; format: biochemical; settings: 0.1 or 1 μM inhibitor; mean of triplicate
In short: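 140-kinase in vitro panel; compound 0.1 or 1 μM; triplicate reactions. Output given as remaining activity (% of DMSO control) ±S.D.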

Chain of GCK (Q12851 whole entry): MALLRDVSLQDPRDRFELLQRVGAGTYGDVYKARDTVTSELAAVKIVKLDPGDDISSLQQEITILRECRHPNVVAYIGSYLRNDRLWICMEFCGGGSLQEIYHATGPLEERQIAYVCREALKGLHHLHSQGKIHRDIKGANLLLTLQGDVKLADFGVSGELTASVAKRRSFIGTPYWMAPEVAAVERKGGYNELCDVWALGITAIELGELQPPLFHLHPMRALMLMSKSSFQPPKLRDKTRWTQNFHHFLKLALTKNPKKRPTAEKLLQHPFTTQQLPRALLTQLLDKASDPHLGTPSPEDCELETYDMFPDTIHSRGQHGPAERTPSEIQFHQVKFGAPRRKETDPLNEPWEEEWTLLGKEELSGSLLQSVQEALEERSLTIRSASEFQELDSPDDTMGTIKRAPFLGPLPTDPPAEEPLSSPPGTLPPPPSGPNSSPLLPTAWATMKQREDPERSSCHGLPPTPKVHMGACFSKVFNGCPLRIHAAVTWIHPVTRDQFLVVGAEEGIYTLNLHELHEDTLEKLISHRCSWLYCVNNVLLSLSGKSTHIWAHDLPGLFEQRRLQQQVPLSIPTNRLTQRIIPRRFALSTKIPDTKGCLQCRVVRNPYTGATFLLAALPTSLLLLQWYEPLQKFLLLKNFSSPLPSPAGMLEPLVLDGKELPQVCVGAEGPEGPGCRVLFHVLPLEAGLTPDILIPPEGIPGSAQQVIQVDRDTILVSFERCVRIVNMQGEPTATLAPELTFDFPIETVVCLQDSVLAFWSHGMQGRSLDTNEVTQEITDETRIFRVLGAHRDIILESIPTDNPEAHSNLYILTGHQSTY
Chain of PKD1 (Q15139 whole entry): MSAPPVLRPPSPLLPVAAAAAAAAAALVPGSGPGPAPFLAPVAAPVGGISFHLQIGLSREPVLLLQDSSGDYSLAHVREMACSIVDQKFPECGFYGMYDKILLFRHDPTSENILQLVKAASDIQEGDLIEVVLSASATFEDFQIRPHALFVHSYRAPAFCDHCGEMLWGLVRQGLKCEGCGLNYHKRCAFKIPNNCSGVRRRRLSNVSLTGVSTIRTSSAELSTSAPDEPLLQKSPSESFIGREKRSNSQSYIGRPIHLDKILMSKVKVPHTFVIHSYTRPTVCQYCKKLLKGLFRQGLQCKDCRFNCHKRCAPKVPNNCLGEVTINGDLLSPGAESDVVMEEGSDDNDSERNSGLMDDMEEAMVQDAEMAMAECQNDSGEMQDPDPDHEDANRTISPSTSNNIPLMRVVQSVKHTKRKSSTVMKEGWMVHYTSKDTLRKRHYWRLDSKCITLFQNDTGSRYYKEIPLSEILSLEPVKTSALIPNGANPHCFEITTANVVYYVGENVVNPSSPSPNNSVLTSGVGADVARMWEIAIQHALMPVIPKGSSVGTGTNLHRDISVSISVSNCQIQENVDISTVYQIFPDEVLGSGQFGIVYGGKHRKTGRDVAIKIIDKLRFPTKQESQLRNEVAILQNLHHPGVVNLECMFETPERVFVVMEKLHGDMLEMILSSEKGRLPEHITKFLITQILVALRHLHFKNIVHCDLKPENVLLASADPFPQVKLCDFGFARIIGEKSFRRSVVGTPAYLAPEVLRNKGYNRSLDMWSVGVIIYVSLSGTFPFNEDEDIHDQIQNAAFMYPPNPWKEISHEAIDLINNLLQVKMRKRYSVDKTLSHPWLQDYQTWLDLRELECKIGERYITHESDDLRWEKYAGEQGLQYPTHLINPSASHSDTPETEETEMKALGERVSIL

Compound: Cc1nc(Nc2cnn(C3CCNCC3)c2)nc2c1N(C)C(=O)c1cc3ccccc3cc1N2C [HTH-01-015]
- GCK activity, percentage of DMSO control [1]: 126 percentage
- PKD1 activity, percentage of DMSO control [2]: 94 percentage
